One data set has as its target PI3Kα (Homo sapiens, UniProt P42336). Nature of the data set: PI3K-alpha fluorescence polarization assay. To be noted: read-out: PI3Kα Median IC50. The class given is biochemical. For orientation: Polarisation of emitted light reports the rotation of a fluorescent probe.
The target in the next data set is PI3Kγ (Homo sapiens, UniProt P48736). Nature of the data set: PI3K-gamma fluorescence polarization assay. The class given is biochemical. The note with it: read-out: PI3Kγ Median IC50.
The target in a further data set is mTOR (Homo sapiens, UniProt P42345). Nature of the data set: mTOR enzyme assay (DELFIA format, His6-S6K substrate). The class given is biochemical.
The mark [1] stands for this setting: read-out: mTOR Kinase Median IC50.

Like-named read-outs stand apart in the source and are kept apart here.

Chain of PI3Kα (P42336 whole entry, species assumed): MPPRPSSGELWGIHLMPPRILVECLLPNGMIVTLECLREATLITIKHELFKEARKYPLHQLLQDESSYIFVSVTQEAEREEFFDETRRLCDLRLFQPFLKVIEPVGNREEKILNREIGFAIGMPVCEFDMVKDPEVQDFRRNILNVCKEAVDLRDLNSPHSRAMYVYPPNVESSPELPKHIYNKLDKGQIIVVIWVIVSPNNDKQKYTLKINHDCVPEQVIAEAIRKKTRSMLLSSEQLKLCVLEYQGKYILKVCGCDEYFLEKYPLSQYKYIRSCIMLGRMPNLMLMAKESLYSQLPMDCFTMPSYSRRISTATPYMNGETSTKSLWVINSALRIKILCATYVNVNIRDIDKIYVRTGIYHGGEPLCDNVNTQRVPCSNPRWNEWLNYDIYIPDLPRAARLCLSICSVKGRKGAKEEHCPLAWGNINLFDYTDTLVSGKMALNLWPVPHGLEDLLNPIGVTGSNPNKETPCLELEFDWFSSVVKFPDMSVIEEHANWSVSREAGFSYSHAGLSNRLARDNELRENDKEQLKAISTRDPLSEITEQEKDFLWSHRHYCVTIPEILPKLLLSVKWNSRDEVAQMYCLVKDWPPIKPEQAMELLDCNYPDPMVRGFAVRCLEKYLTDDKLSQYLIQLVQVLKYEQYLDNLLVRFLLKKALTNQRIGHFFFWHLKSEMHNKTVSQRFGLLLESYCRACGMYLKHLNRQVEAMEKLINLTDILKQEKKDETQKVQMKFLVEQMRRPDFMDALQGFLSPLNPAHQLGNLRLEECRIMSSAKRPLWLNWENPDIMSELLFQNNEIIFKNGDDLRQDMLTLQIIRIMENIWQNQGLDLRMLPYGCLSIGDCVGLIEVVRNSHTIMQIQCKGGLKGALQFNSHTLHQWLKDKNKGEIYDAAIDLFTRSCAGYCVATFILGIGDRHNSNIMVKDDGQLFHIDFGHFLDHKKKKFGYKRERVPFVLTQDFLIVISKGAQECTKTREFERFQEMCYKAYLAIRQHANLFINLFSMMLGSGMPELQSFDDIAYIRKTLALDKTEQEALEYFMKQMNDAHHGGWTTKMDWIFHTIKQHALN
Chain of PI3Kα (P27986 whole entry partner, species assumed): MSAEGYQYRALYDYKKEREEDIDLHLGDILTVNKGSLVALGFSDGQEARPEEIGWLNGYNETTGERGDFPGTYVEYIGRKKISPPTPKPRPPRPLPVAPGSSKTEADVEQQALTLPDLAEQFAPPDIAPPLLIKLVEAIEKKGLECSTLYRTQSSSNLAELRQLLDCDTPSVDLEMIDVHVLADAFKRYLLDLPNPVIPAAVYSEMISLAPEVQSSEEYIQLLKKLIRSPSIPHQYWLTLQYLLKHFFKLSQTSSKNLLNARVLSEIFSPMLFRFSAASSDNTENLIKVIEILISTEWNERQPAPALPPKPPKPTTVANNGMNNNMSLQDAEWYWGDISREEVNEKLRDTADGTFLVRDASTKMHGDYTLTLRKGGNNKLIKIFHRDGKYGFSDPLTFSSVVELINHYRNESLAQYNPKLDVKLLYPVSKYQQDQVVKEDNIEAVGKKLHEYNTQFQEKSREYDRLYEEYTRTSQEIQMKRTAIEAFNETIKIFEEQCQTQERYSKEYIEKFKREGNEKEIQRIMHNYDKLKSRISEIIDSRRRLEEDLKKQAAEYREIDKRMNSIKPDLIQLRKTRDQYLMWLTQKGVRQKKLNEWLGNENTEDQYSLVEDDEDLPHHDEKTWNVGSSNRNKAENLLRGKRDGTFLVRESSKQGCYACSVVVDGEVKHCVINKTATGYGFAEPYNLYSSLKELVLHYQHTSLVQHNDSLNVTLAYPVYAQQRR
Chain of PI3Kγ (P48736 whole entry, species assumed): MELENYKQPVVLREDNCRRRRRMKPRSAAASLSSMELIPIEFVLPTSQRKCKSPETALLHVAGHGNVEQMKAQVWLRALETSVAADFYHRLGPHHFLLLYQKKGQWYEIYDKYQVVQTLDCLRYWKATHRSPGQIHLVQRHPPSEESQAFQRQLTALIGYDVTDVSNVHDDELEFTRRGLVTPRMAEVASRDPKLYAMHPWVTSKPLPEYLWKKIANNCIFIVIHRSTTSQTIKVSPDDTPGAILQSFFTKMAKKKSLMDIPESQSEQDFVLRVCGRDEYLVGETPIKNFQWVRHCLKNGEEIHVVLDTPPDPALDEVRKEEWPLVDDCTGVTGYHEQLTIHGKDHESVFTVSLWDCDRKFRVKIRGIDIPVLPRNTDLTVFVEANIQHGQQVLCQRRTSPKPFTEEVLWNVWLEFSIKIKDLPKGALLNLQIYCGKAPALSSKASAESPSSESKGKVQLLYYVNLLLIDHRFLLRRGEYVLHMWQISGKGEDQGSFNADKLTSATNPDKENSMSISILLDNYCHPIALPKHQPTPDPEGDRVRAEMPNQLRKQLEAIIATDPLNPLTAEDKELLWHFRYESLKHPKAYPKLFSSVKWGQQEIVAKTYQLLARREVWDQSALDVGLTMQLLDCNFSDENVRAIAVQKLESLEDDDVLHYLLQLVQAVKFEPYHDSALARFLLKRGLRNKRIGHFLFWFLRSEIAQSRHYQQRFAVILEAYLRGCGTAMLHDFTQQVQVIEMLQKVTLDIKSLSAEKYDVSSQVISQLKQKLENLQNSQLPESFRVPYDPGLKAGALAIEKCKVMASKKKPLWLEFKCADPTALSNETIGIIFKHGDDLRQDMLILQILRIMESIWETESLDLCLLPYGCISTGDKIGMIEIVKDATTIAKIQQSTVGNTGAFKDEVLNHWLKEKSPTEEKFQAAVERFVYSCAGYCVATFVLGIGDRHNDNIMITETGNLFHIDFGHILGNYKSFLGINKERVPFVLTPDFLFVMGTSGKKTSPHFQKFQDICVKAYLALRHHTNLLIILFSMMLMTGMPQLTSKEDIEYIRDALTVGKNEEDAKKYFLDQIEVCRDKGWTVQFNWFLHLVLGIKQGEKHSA

Consider `Cn1cc(/C=C2\Oc3cccc(O)c3C2=O)c2c(N3CC4CC3CO4)ccnc21` (centres unmarked) [Compound 117, (2Z)-4-hydroxy-2-{[1-methyl-4-(2-oxa-5-azabicyclo[2.2.1]hept-5-yl)-1H-pyrrolo[2,3-b]pyridin-3-yl]methylene}-1-benzofuran-3(2H)-one], for which the melting point was 258 to 263 °C. The IC50 on PI3Kα is 30 nM. Further, the 50% inhibitory concentration (IC50) at PI3Kγ turned out to be 88 nM. Besides, on mTOR (setting [1]), the half-inhibitory concentration (IC50) was 4.4 nM.
`CN(C)CCCN1CCN(c2ccnc3c2c(/C=C2\Oc4cccc(O)c4C2=O)cn3C)CC1` [Compound 118, (2Z)-2-[(4-{4-[3-(dimethylamino)propyl]piperazin-1-yl}-1-methyl-1H-pyrrolo[2,3-b]pyridin-3-yl)methylene]-4-hydroxy-1-benzofuran-3(2H)-one]: the melting point lay in the range of 263 to 268 °C. Besides, at PI3Kα, the half-maximal inhibitory concentration (IC50) turned out to be 286 nM. The IC50 on PI3Kγ was 791 nM. Further, on mTOR (setting [1]), the IC50 was determined as 20 nM.
In turn, `CN(C)C(=O)c1cccc(-c2ccnc3c2c(/C=C2\Oc4cccc(O)c4C2=O)cn3C)c1` [Compound 121, 3-{3-[(Z)-(4-hydroxy-3-oxo-1-benzofuran-2(3H)-ylidene)methyl]-1-methyl-1H-pyrrolo[2,3-b]pyridin-4-yl}-N,N-dimethylbenzamide] registered a melting point of 220 to 223 °C. The IC50 at PI3Kα was found to be 369 nM. For the same compound, the IC50 at PI3Kγ was found to be 425 nM. The IC50 on mTOR (setting [1]) was determined as 18 nM.
Compound `CN(C)Cc1cccc(-c2ccnc3c2c(/C=C2\Oc4cccc(O)c4C2=O)cn3C)c1` [Compound 122, (2Z)-2-[(4-{3-[(dimethylamino)methyl]phenyl}-1-methyl-1H-pyrrolo[2,3-b]pyridin-3-yl)methylene]-4-hydroxy-1-benzofuran-3(2H)-one] returned a melting point of 308 to 315 °C. In addition, at PI3Kα, the IC50 was determined as 60 nM. For the same compound, the IC50 at PI3Kγ came to 279 nM. Moreover, the IC50 on mTOR (setting [1]) worked out at 18 nM.
On to `CN1CCN(C2CCN(c3ccnc4c3c(/C=C3\Oc5cccc(O)c5C3=O)cn4C)CC2)CC1` [Compound 129, (2Z)-4-hydroxy-2-({1-methyl-4-[4-(4-methylpiperazin-1-yl)piperidin-1-yl]-1H-pyrrolo[2,3-b]pyridin-3-yl}methylene)-1-benzofuran-3(2H)-one], for which the melting point was 239 to 242 °C. For the same compound, the IC50 at PI3Kα was determined as 47 nM. At PI3Kγ, the IC50 was 167 nM. Besides, the half-maximal inhibitory concentration (IC50) at mTOR (setting [1]) is 14 nM.
For `CNC(=O)Nc1ccc2c(c1)C(=O)/C(=C/c1cn(C)c3nccc(N4CC5CCC(C4)O5)c13)O2` [Compound 131, 1-methyl-3-[(2Z)-2-{[1-methyl-4-(8-oxa-3-azabicyclo[3.2.1]oct-3-yl)-1H-pyrrolo[2,3-b]pyridin-3-yl]methylene}-3-oxo-2,3-dihydro-1-benzofuran-5-yl]urea], in that order: 247 to 255 °C, 580 nM, 557 nM and 9.5 nM.
For `CNC(=O)c1ccc(-c2ccnc3c2c(/C=C2\Oc4cccc(O)c4C2=O)cn3C)cc1` [Compound 132, 4-{3-[(Z)-(4-hydroxy-3-oxo-1-benzofuran-2(3H)-ylidene)methyl]-1-methyl-1H-pyrrolo[2,3-b]pyridin-4-yl}-N-methylbenzamide], in that order: 175 °C, 33 nM, 83 nM and 1.7 nM.
Regarding `CNC(=O)Nc1ccc(-c2ccnc3c2c(/C=C2\Oc4cccc(O)c4C2=O)cn3C)cc1` [Compound 133, 1-(4-{3-[(Z)-(4-hydroxy-3-oxo-1-benzofuran-2(3H)-ylidene)methyl]-1-methyl-1H-pyrrolo[2,3-b]pyridin-4-yl}phenyl)-3-methylurea], the melting point was 298 to 305 °C (dec.). For the same compound, the IC50 on PI3Kα is 37 nM. In addition, the half-maximal inhibitory concentration (IC50) at PI3Kγ is 30 nM. Besides, at mTOR (setting [1]), the concentration for half-maximal inhibition (IC50) was 1.5 nM.
For `CC(=O)c1ccc(-c2ccnc3c2c(/C=C2\Oc4cccc(O)c4C2=O)cn3C)cc1` [Compound 134, (2Z)-2-{[4-(4-acetylphenyl)-1-methyl-1H-pyrrolo[2,3-b]pyridin-3-yl]methylene}-4-hydroxy-1-benzofuran-3(2H)-one], in that order: 250 to 253 °C, 55 nM, 89 nM and 3.8 nM.
The corresponding values for `Cn1cc(/C=C2\Oc3cccc(O)c3C2=O)c2c(N3CCC(N)CC3)ccnc21` [Compound 139, (2Z)-2-{[4-(4-aminopiperidin-1-yl)-1-methyl-1H-pyrrolo[2,3-b]pyridin-3-yl]methylene}-4-hydroxy-1-benzofuran-3(2H)-one] are 260 °C, 119 nM, 1270 nM and 19 nM.
The corresponding values for `CN(C)C(=O)Nc1ccc(-c2ccnc3c2c(/C=C2\Oc4cccc(O)c4C2=O)cn3C)cc1` [Compound 140, 3-(4-{3-[(Z)-(4-hydroxy-3-oxo-1-benzofuran-2(3H)-ylidene)methyl]-1-methyl-1H-pyrrolo[2,3-b]pyridin-4-yl}phenyl)-1,1-dimethylurea] are 235 to 238 °C, 59 nM, 74 nM and 2 nM.
`CN(C)C(=O)c1ccccc1-c1ccnc2c1c(/C=C1\Oc3cccc(O)c3C1=O)cn2C` [Compound 141, 2-{3-[(Z)-(4-hydroxy-3-oxo-1-benzofuran-2(3H)-ylidene)methyl]-1-methyl-1H-pyrrolo[2,3-b]pyridin-4-yl}-N,N-dimethylbenzamide] showed a melting point of 293 to 295 °C. The concentration for half-maximal inhibition (IC50) on PI3Kα worked out at 5900 nM. For the same compound, the half-maximal inhibitory concentration (IC50) on PI3Kγ is 1860 nM. At mTOR (setting [1]), the half-inhibitory concentration (IC50) came to 180 nM.
The corresponding values for `Cn1cc(/C=C2\Oc3cccc(O)c3C2=O)c2c(-c3ccc(C(=O)N4CC5CCC(C4)O5)cc3)ccnc21` [Compound 144, (2Z)-4-hydroxy-2-({1-methyl-4-[4-(8-oxa-3-azabicyclo[3.2.1]oct-3-ylcarbonyl)phenyl]-1H-pyrrolo[2,3-b]pyridin-3-yl}methylidene)-1-benzofuran-3(2H)-one] are 296 to 298 °C, 57 nM, 77 nM and 0.6 nM.
The corresponding values for `CN(C)C(=O)C1CCN(c2ccnc3c2c(/C=C2\Oc4cccc(O)c4C2=O)cn3C)CC1` [Compound 145, 1-{3-[(Z)-(4-hydroxy-3-oxo-1-benzofuran-2(3H)-ylidene)methyl]-1-methyl-1H-pyrrolo[2,3-b]pyridin-4-yl}-N,N-dimethylpiperidine-4-carboxamide] are 185 to 195 °C, 38 nM, 74 nM and 0.6 nM.
For `Cn1cc(/C=C2\Oc3cccc(O)c3C2=O)c2c(N3CCC(C(=O)NCCO)CC3)ccnc21` [Compound 148, N-(2-hydroxyethyl)-1-{3-[(Z)-(4-hydroxy-3-oxo-1-benzofuran-2(3H)-ylidene)methyl]-1-methyl-1H-pyrrolo[2,3-b]pyridin-4-yl}piperidine-4-carboxamide], in that order: 232 to 242 °C, 39 nM, 94 nM and 0.7 nM.
`Cn1cc(/C=C2\Oc3cccc(O)c3C2=O)c2c(N3CCC(C(=O)N4CCOCC4)CC3)ccnc21` [Compound 150, (2Z)-4-hydroxy-2-({1-methyl-4-[4-(morpholin-4-ylcarbonyl)piperidin-1-yl]-1H-pyrrolo[2,3-b]pyridin-3-yl}methylidene)-1-benzofuran-3(2H)-one] returned a melting point of 358 to 361 °C. Also, the IC50 on PI3Kα was 63 nM. Besides, the IC50 at PI3Kγ worked out at 50 nM. Besides, on mTOR (setting [1]), the half-maximal inhibitory concentration (IC50) was 1.4 nM.
Compound `Cn1cc(/C=C2\Oc3cccc(O)c3C2=O)c2c(N3C4CCC3COC4)ccnc21` [Compound 151, (2Z)-4-hydroxy-2-{[1-methyl-4-(3-oxa-8-azabicyclo[3.2.1]oct-8-yl)-1H-pyrrolo[2,3-b]pyridin-3-yl]methylidene}-1-benzofuran-3(2H)-one] displayed a melting point of 284 to 291 °C. At PI3Kα, the concentration for half-maximal inhibition (IC50) was determined as 19 nM. Also, the half-inhibitory concentration (IC50) on PI3Kγ is 49 nM. This compound registered an IC50 against mTOR of 2.1 nM.
With `Cn1cc(/C=C2\Oc3cccc(O)c3C2=O)c2c(N3CCC(C(=O)N4CCCC4)CC3)ccnc21` [Compound 152, (2Z)-4-hydroxy-2-({1-methyl-4-[4-(pyrrolidin-1-ylcarbonyl)piperidin-1-yl]-1H-pyrrolo[2,3-b]pyridin-3-yl}methylidene)-1-benzofuran-3(2H)-one], the melting point fell in the range of 191 to 207 °C. In addition, at PI3Kα, the IC50 came to 31 nM. The concentration for half-maximal inhibition (IC50) at PI3Kγ is 32 nM. In addition, the IC50 at mTOR (setting [1]) turned out to be 0.6 nM.
With `CC(=O)Nc1ccc2c(c1)C(=O)/C(=C/c1cn(C)c3nccc(-c4ccccc4)c13)O2` [Compound 154, N-{(2Z)-2-[(1-methyl-4-phenyl-1H-pyrrolo[2,3-b]pyridin-3-yl)methylidene]-3-oxo-2,3-dihydro-1-benzofuran-5-yl}acetamide], the melting point was in the range of 332 to 335 °C. Also, the IC50 at PI3Kα is 1390 nM. Besides, at PI3Kγ, the half-inhibitory concentration (IC50) stood at 1070 nM. On mTOR (setting [1]), the half-inhibitory concentration (IC50) amounted to 69 nM.
The corresponding values for `CC(=O)Nc1ccc2c(c1)C(=O)/C(=C/c1cn(C)c3nccc(N4CC5CCC(C4)O5)c13)O2` [Compound 155, N-[(2Z)-2-{[1-methyl-4-(8-oxa-3-azabicyclo[3.2.1]oct-3-yl)-1H-pyrrolo[2,3-b]pyridin-3-yl]methylidene}-3-oxo-2,3-dihydro-1-benzofuran-5-yl]acetamide] are 275 to 285 °C (dec.), 150 nM, 306 nM and 14.5 nM.

Broadly, the IC50 is the midpoint of a concentration-inhibition curve. One may read the melting point as the temperature, or range, at which the solid turns liquid.

These data come from patent US20090298820A1, “3-SUBSTITUTED-1H-PYRROLO[2,3-B]PYRIDINE AND 3-SUBSTITUTED-1H-PYRROLO[3,2-B]PYRIDINE COMPOUNDS, THEIR USE AS MTOR KINASE AND PI3 KINASE INHIBITORS, AND THEIR SYNTHESES” (Wyeth, priority 2008, published 2009).
